# Test results as given in ChEMBL document CHEMBL5661943, “ASAP - In vitro antiviral effect” (2024).
# Columns and labels:
# [1] = tested on: Zika virus; assay: Functional CPE-based assay to measure dose dependent changes in antiviral-drug inhibitory efficacy against Zika virus MR766 in Vero E6 miRFP670 cells (cotreated with P-gp inhibitor, CP100356). Cells are treated with antiviral candidates that are serially diluted. EC50 is reported via analysis of MTS assay as a readout of CPE. The assay has been performed by KU Leuven.; assay type: organism-based, Chlorocebus sabaeus, Vero C1008; settings: Zika virus; for EC90: P-gp concentration 500 nM, P-gp inhibitor CP100356
# [2] = tested on: dengue virus type 2; assay: Functional assay to measure dose dependent changes in antiviral-drug inhibitory efficacy against Dengue virus type 2 New Guinea C in Vero E6 miRFP670 cells (cotreated with P-gp inhibitor, CP100356). Cells are treated with antiviral candidates that are serially diluted, following infection, cells are fixed. EC50 is reported via analysis of fluorescence intensity using high-content imager. The …; assay type: organism-based, Chlorocebus sabaeus, Vero C1008; settings: for EC90: P-gp concentration 500 nM, P-gp inhibitor CP100356
smiles,measurement,setting,value
O=C(O)Cc1c[nH]c2cc(-c3cc(Cl)cc(NC(=O)OCc4ccccc4)c3)ccc12,EC50,[1]; Vero C1008,> 50 µM
same,EC90,"[1]; Vero C1008, Baseline response 0 %, Hill slope 0.295, Maximum measured 15.391 %, Maximum response 100 %, Minimum measured 1.73 %, R squared 0.19",> 50 µM
same,EC50,"[2]; Dengue virus, Vero C1008",28.1 µM
same,EC90,"[2]; Dengue virus, Vero C1008, Baseline response 0 %, Hill slope -3.369, Maximum measured 96.537 %, Maximum response 100 %, Minimum measured 12.115 %, R squared 0.802",> 50 µM
O=C(Nc1cc(Cl)cc(-c2cnn(Cc3ccc(C(=O)O)cc3)c2)c1)OCc1ccccc1,EC50,[1]; Vero C1008,> 50 µM
same,EC90,"[1]; Vero C1008, Baseline response 0 %, Hill slope 1.126, Maximum measured 43.56 %, Maximum response 100 %, Minimum measured -3.769 %, R squared 0.488",> 50 µM
same,EC50,"[2]; Dengue virus, Vero C1008",25 µM
same,EC90,"[2]; Dengue virus, Vero C1008, Baseline response 0 %, Hill slope -21.178, Maximum measured 148.823 %, Maximum response 100 %, Minimum measured 10.822 %, R squared 0.564",27.8 µM
FC(F)(F)Oc1cc(Cl)cc2c(Cc3ccc(-c4nnn[nH]4)cc3)c[nH]c12,EC50,[1]; Vero C1008,20.6 µM
same,EC90,"[1]; Vero C1008, Baseline response 0 %, Hill slope 5.381, Maximum measured 73.735 %, Maximum response 100 %, Minimum measured 0.486 %, R squared 0.994",> 25 µM
same,EC50,"[2]; Dengue virus, Vero C1008",11.9 µM
same,EC90,"[2]; Dengue virus, Vero C1008, Baseline response 0 %, Hill slope -33.999, Maximum measured 142.465 %, Maximum response 100 %, Minimum measured 16.781 %, R squared 0.605",> 12.5 µM
Clc1cc(CNc2ccc3c(c2)CNC3)c2cn[nH]c2c1,EC50,[1]; Vero C1008,17.9 µM
same,EC90,"[1]; Vero C1008, Baseline response 0 %, Hill slope 3.353, Maximum measured 76.866 %, Maximum response 100 %, Minimum measured 0.884 %, R squared 0.96",> 25 µM
same,EC50,"[2]; Dengue virus, Vero C1008",3.18 µM
same,EC90,"[2]; Dengue virus, Vero C1008, Baseline response 0 %, Hill slope -0.438, Maximum measured 74.942 %, Maximum response 100 %, Minimum measured 39.794 %, R squared 0.558",> 12.5 µM
COC(=O)c1cc(Br)cc2c(Cc3ccc(-c4nnn[nH]4)cc3)c[nH]c12,EC50,[1]; Vero C1008,> 50 µM
same,EC90,"[1]; Vero C1008, Baseline response 0 %, Hill slope 0.557, Maximum measured 36.25 %, Maximum response 100 %, Minimum measured -2.518 %, R squared 0.117",> 50 µM
same,EC50,"[2]; Dengue virus, Vero C1008",> 50 µM
same,EC90,"[2]; Dengue virus, Vero C1008, Maximum measured 157.502 %, Minimum measured 51.504 %",> 50 µM
CN(c1ccc2c(c1)CNC2)[C@H](C(=O)NCC(F)F)c1cc(Cl)cc(C2CC2)c1,EC50,[1]; Vero C1008,0.859 µM
same,EC90,"[1]; Vero C1008, Baseline response 0 %, EC90 CI (lower) 0.179 uM, EC90 CI (upper) 7.248 uM, Hill slope 7.833, Maximum measured 121.708 %, Maximum response 100 %, Minimum measured 8.623 %, R squared 0.915",1.14 µM
same,EC50,"[2]; Dengue virus, Vero C1008",> 3.12 µM
same,EC90,"[2]; Dengue virus, Vero C1008, Baseline response 0 %, Hill slope -0.632, Maximum measured 86.584 %, Maximum response 100 %, Minimum measured 48.476 %, R squared 0.311",> 3.12 µM
O=C1Cc2c(cccc2C(=O)Nc2ccc3c(c2)CCNCC3)N1,EC50,[1]; Vero C1008,> 50 µM
same,EC90,"[1]; Vero C1008, Maximum measured 3.486 %, Minimum measured -0.899 %",> 50 µM
same,EC50,"[2]; Dengue virus, Vero C1008",> 50 µM
same,EC90,"[2]; Dengue virus, Vero C1008, Maximum measured 144.677 %, Minimum measured 92.434 %",> 50 µM
O=C(Nc1cnc2c(c1)CNC2)c1cc(F)cc2[nH]ncc12,EC50,[1]; Vero C1008,> 50 µM
same,EC90,"[1]; Vero C1008, Baseline response 0 %, Hill slope 2.313, Maximum measured 10.311 %, Maximum response 100 %, Minimum measured -0.319 %, R squared 0.353",> 50 µM
same,EC50,"[2]; Dengue virus, Vero C1008",> 50 µM
same,EC90,"[2]; Dengue virus, Vero C1008, Maximum measured 142.482 %, Minimum measured 85.178 %",> 50 µM
O=C(NCC(F)F)[C@H](Nc1cc2c(cc1Br)CNC2)c1cc(Cl)cc(C2CC2)c1,EC50,[1]; Vero C1008,0.807 µM
same,EC90,"[1]; Vero C1008, Baseline response 0 %, Hill slope 18.882, Maximum measured 131.702 %, Maximum response 100 %, Minimum measured 12.911 %, R squared 0.859",0.907 µM
same,EC50,"[2]; Dengue virus, Vero C1008",> 50 µM
same,EC90,"[2]; Dengue virus, Vero C1008, Maximum measured 177.59 %, Minimum measured 74.788 %",> 50 µM
O=C(Nc1ccc2c(c1)CN[C@H]2CC1CC1)c1cc(F)cc2[nH]ncc12,EC50,[1]; Vero C1008,1.64 µM
same,EC90,"[1]; Vero C1008, Baseline response 0 %, Hill slope 24.148, Maximum measured 124.993 %, Maximum response 100 %, Minimum measured 2.983 %, R squared 0.936",1.79 µM
same,EC50,"[2]; Dengue virus, Vero C1008",1.03 µM
O=C1Nc2ccc(C(=O)Nc3ccc4c(c3)CNC4)cc2C1=O,EC50,[1]; Vero C1008,> 50 µM
same,EC90,"[1]; Vero C1008, Baseline response 0 %, Hill slope 1.301, Maximum measured 24.355 %, Maximum response 100 %, Minimum measured -0.531 %, R squared 0.91",> 50 µM
same,EC50,"[2]; Dengue virus, Vero C1008",> 50 µM
same,EC90,"[2]; Dengue virus, Vero C1008, Maximum measured 138.129 %, Minimum measured 92.792 %",> 50 µM
O=C(Nc1cc(Cl)cc(-c2ccc3[nH]c(C(=O)O)cc3c2)c1)OCc1ccccc1,EC50,[1]; Vero C1008,> 25 µM
same,EC90,"[1]; Vero C1008, Baseline response 0 %, Hill slope 14.672, Maximum measured 32.342 %, Maximum response 100 %, Minimum measured -3.566 %, R squared 0.926",> 25 µM
same,EC90,"[2]; Baseline response 0 %, EC90 CI (lower) 8.977 uM, EC90 CI (upper) 21.139 uM, Hill slope -3.716, Maximum measured 111.991 %, Maximum response 100 %, Minimum measured 0.586 %, R squared 0.931",45 µM
same,EC90,"[2]; Baseline response 0 %, Hill slope -1.036, Maximum measured 105.577 %, Maximum response 100 %, Minimum measured 51.847 %, R squared 0.535",> 12.5 µM
same,EC50,"[2]; Dengue virus, Vero C1008",24.9 µM
same,EC50,[2]; vero c1008,> 12.5 µM
CC(C)(C)OC(=O)N1Cc2ccc(N[C@H](C(=O)O)c3cc(Cl)cc4[nH]ncc34)cc2C1,EC50,[1]; Vero C1008,> 50 µM
same,EC90,"[1]; Vero C1008, Baseline response 0 %, Hill slope -0.446, Maximum measured 2.879 %, Maximum response 100 %, Minimum measured -1.465 %, R squared 0.442",> 50 µM
same,EC50,"[2]; Dengue virus, Vero C1008",> 50 µM
same,EC90,"[2]; Dengue virus, Vero C1008, Maximum measured 176.94 %, Minimum measured 116.898 %",> 50 µM
N#CCc1cc(NC(=O)c2cc(F)cc3[nH]ncc23)cc2c1CNC2,EC50,[1]; Vero C1008,41.5 µM
same,EC90,"[1]; Vero C1008, Baseline response 0 %, Hill slope 1.989, Maximum measured 59.393 %, Maximum response 100 %, Minimum measured -2.191 %, R squared 0.98",> 50 µM
same,EC50,"[2]; Dengue virus, Vero C1008",> 50 µM
same,EC90,"[2]; Dengue virus, Vero C1008, Maximum measured 146.108 %, Minimum measured 103.208 %",> 50 µM
NCc1ccc(-c2csc3cc(C(=O)Nc4ccc5c(c4)CNC5)ccc23)cc1,EC50,[1]; Vero C1008,> 50 µM
same,EC90,"[1]; Vero C1008, Maximum measured 6.518 %, Minimum measured 2.745 %",> 50 µM
same,EC50,"[2]; Dengue virus, Vero C1008",> 6.25 µM
same,EC90,"[2]; Dengue virus, Vero C1008, Baseline response 0 %, Hill slope -0.794, Maximum measured 120.176 %, Maximum response 100 %, Minimum measured 78.099 %, R squared 0.152",> 6.25 µM
O=C(NCC(F)F)[C@H](Nc1cnc2c(c1)CNC2)c1cc(Cl)cc(C2CC2)c1,EC50,[1]; Vero C1008,0.828 µM
same,EC90,"[1]; Vero C1008, Baseline response 0 %, EC90 CI (lower) 1.299 uM, EC90 CI (upper) 2.383 uM, Hill slope 2.915, Maximum measured 110.454 %, Maximum response 100 %, Minimum measured 12.588 %, R squared 0.958",1.76 µM
same,EC50,"[2]; Dengue virus, Vero C1008",> 50 µM
same,EC90,"[2]; Dengue virus, Vero C1008, Maximum measured 147.541 %, Minimum measured 99.767 %",> 50 µM
NCc1csc2cc(C(=O)Nc3ccc4c(c3)CNC4)ccc12,EC50,[1]; Vero C1008,> 50 µM
same,EC90,"[1]; Vero C1008, Baseline response 0 %, Hill slope 0.999, Maximum measured 5.799 %, Maximum response 100 %, Minimum measured -1.302 %, R squared 0.306",> 50 µM
same,EC50,"[2]; Dengue virus, Vero C1008",> 50 µM
same,EC90,"[2]; Dengue virus, Vero C1008, Maximum measured 124.572 %, Minimum measured 93.265 %",> 50 µM
O=C(Nc1ccc2c(c1)CNC2)c1cccc2c(C3CNC3)n[nH]c12,EC50,[1]; Vero C1008,9.06 µM
same,EC90,"[1]; Vero C1008, Baseline response 0 %, EC90 CI (lower) 13.229 uM, EC90 CI (upper) 28.268 uM, Hill slope 2.896, Maximum measured 113.87 %, Maximum response 100 %, Minimum measured -0.433 %, R squared 0.955",19.3 µM
same,EC50,"[2]; Dengue virus, Vero C1008",> 50 µM
same,EC90,"[2]; Dengue virus, Vero C1008, Maximum measured 103.764 %, Minimum measured 75.286 %",> 50 µM
O=C(Nc1ccc2c(c1)CNC2)c1cc(Br)cc2c1nc1n2CCCC1,EC50,[1]; Vero C1008,> 50 µM
same,EC90,"[1]; Vero C1008, Maximum measured -3.355 %, Minimum measured -6.068 %",> 50 µM
same,EC50,"[2]; Dengue virus, Vero C1008",> 50 µM
same,EC90,"[2]; Dengue virus, Vero C1008, Maximum measured 143.517 %, Minimum measured 80.126 %",> 50 µM
C[C@H]1C(=O)Nc2ccc(C(=O)Nc3ccc4c(c3)CNC4)cc21,EC50,[1]; Vero C1008,> 50 µM
same,EC90,"[1]; Vero C1008, Maximum measured 0.465 %, Minimum measured -1.56 %",> 50 µM
same,EC50,"[2]; Dengue virus, Vero C1008",> 50 µM
same,EC90,"[2]; Dengue virus, Vero C1008, Maximum measured 179.475 %, Minimum measured 83.637 %",> 50 µM
